# Assay results as given in US10391166B2, “Short oligonucleotides as vaccine adjuvants and therapeutic agents” (priority 2013, dated 2019).
# “Also recorded” adds a separate entry of the source. Like-named read-outs stand apart in the source and are kept apart here.
# Assays:
# [1] = target: T1, RIG-I (Homo sapiens, UniProt O95786); test: IRF3-luciferase assay in HEK 293 cells transfected with RIGI; format: cell-based; conditions: 100 or 500 nM; 8 h or 16 h incubation
# T1 construct: expressed in transfected cells; host or cells: HEK 293
# T1 sequence (O95786 1-925): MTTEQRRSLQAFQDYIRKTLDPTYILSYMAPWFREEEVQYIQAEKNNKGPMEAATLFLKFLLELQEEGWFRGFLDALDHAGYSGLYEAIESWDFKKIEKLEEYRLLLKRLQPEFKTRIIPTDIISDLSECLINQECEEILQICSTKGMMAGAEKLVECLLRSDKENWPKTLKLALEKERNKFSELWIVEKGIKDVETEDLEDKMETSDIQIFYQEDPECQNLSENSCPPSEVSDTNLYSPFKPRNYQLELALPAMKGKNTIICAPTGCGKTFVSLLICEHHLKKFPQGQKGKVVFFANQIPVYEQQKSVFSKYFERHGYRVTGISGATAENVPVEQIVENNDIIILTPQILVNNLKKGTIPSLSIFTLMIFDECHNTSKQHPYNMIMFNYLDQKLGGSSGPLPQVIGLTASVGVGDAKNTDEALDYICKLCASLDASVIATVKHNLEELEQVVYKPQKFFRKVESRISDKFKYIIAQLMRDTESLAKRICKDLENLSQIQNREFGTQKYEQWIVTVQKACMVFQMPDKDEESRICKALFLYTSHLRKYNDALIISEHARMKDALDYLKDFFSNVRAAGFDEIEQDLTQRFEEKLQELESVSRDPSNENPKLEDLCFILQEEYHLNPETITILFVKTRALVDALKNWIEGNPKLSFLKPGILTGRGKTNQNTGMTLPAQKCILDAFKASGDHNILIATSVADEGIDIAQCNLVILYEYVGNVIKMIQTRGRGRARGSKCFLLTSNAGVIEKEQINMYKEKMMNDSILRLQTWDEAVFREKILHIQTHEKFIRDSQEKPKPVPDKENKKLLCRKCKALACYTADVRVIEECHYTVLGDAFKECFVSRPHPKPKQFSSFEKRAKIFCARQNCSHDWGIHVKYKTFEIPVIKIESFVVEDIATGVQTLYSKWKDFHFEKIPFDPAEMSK
# Method: (§1) HEK 293 cells were transfected with RIGI, pcDNA and IRF3-luciferase. The cells were then incubated with SB 44 (100 or 500 nM). Following 8 h or 16 h incubation, Luciferase activity was measured as described previously. The Luciferase assay results are presented as mean±S.D. from three independent experiments.
# [2] = test system: NF-kB; test: NF-kB-luciferase assay in HEK 293 cells transfected with RIGI and Nod2; format: cell-based; conditions: 10 μM; 12 h incubation
# Method: as §1, with “pcDNA, Nod2” for “pcDNA”, “NF-kB-luciferase.” for “IRF3-luciferase.”, “(10 μM).” for “(100 or 500 nM).”, “12” for “8 h or 16”
# [3] = test system: phosphorylated IRF3; test: Western blot for phosphorylated IRF3 in human lung epithelial A549 cells; format: cell-based; conditions: 500 nM, Western blotting
# Method: Human lung epithelial A549 cells were incubated with either DMSO or SB 44 (500 nM). At indicated post-treatment time-points, the cell lysate was subjected to Western blotting with antibody specific for phosphorylated IRF3 (phospho-IRF3) (Cell signaling).
# [4] = test system: RIG-I and NOD2; format: cell-based; conditions: receptor-deficient cells, exogenous RIG-I and NOD2
# [5] = human liver S9 fractions
# Method: SB 44 (10 μM) was incubated with a mix containing S9 fraction (pooled from human) (1 mg/ml), NADPH (1.3 mM) UDPGA (5 mM), Alamethicin (10 μg/ml) in 1 ml of 1×PBS buffer. S-(5′-adenosyl)-L-methionine iodide (0.1 mM), adenosine 3′-phosphate 5′-phosphosulfate lithium salt hydrate (0.1 mM) and acetyl CoA (1 mM). The metabolite samples were evaluated by HPLC and LC/MS analysis.
# [6] = test system: Madin-Darby bovine kidney (MDBK); test: MTT cytotoxicity assay, MDBK cells; format: cell-based; conditions: 24-hour incubation
# Excerpt: SDS was used as a positive cytotoxic control.
# [7] = Dose range-finding oral toxicity study in rats (single dose and 7 days); format: in vivo, Sprague-Dawley rats
# Excerpt: The objective of this study was to determine potential toxic effects, to identify potential target organs of toxicity, and to determine a maximum tolerated dose (MTD) and a no observable adverse effect level (NOAEL) for the endpoints examined following daily oral gavage of SB 44 for 7 consecutive days to adult male and female Sprague-Dawley rats. Information from this study was used to design subsequent toxicity studies and determine the suitability of the proposed human dose. This study consisted of Phase A and Phase B. Phase A was a dose range-finding study. Two rats (1 male and 1 female) were included in the study. Animals were given a single dose of SB 44 at 1000 mg/kg by oral gavage (po) and observed for 3 days. […] No necropsy was performed.
# In Phase B, rats (3/sex/group) were given a daily oral dose of SB 44 at 50, 250, and 1000 mg/kg/day for 7 consecutive days. A control group (3/sex) was also given a daily oral dose of the vehicle, 50% PEG 400 plus 50% HPMCT (0.1% hydroxypropyl methylcellulose and 0.2% Tween 80 in sterile water), at an equivalent volume for 7 days. Animals were sacrificed on Day 8. The following parameters were evaluated: mortality/morbidity, clinical observations, body weights, clinical pathology (hematology and serum chemistry), organ weights, and, at necropsy, macroscopic observations and microscopic histopathology for liver tissues.
# [8] = 14-day oral toxicity study in rats with two-week recovery; format: in vivo, Sprague-Dawley rats
# Method: (§2) Necropsies were performed on Day 15 for rats in the main study group and on Day 28 for rats in the recovery group.
# [9] = test system: rat bone marrow erythrocytes; test: Bone-marrow micronucleus evaluation in rats; format: in vivo, Sprague-Dawley rats; conditions: 14-day oral dosing
# Method: as §2
# [10] = Dose range-finding oral study in cynomolgus monkeys; format: in vivo; conditions: 500 mg/kg/day oral for 4 days
# Method: The objective of this study was to determine a maximum tolerated dose (MTD) and a no observable adverse effect level (NOAEL) for the endpoints examined following daily oral gavage of SB 44 for 4 consecutive days to cynomolgus monkeys. Information from this study was used to design subsequent dose-ranging toxicity studies and determine the suitability of the proposed human dose.
# SB 44 was administered orally to cynomolgus monkeys consecutively for 4 days at 500 mg/kg/day.
# [11] = liver microsomes
# Method: SB 44 (10 μM) was incubated with a mix containing S9 fraction (pooled from human) (1 mg/ml), NADPH (1.3 mM) UDPGA (5 mM), Alamethicin (10 μg/ml) in 1 ml of 1×PBS buffer. […] The metabolite samples were evaluated by HPLC and LC/MS analysis.
compound,measurement,setting,value
COC1C(OP(=O)(OCC2OC(n3cnc4c(N)ncnc43)CC2O)SCOC(=O)OC(C)C)C(CO)OC1n1ccc(=O)[nH]c1=O (mixture of isomers) [SB 44],IRF3 induction following activation of RIG-I,[1],IRF3 induction following activation of RIG-I
same,induction of NF-kB activity via RIGI and Nod2 activation,[2],"induction of NF-kB activity; also recorded: induction of the transcription factor, NF-KB"
same,activated IRF3 (phospho-IRF3) detection,[3],detection of activated IRF3
same,enhancement of ISG-56 expression over that induced by PolyI-PolyC,[4],2 fold
same,conversion of prodrug to SB 40,[5],stereospecific conversion of SB 44 to the dinucleotide SB 40
same,phase II conjugative reactions,[5],no apparent evidence of any phase II conjugative reactions
same,desulfurized product corresponding to SB 40,[5]; LC/MS,< 5%
same,CC50,[6],> 1000 µM
same,NOAEL,[7]; daily oral administration for 7 consecutive days,at least 1000 mg/kg/day
same,adverse effects,"[7]; daily oral gavage 50, 250, 1000 mg/kg/day for 7 days",no overt biologically or toxicologically significant adverse effects
same,clinical observation after single dose,"[7]; single dose 1000 mg/kg po, observed 3 days",appeared normal
same,no observed effect level (NOEL),[8]; 14-day oral study,50 mg/kg/day
same,overt toxicity,"[8]; 50, 200, 500 mg/kg/day oral for 14 days",did not cause overt toxicity
same,thymus microscopic change,[8]; males and females at 200 and 500 mg/kg/day,Minimal to mild increases in thymic phagocytic macrophages
same,induction of micronuclei,[9],not found to induce micronuclei
same,elevation of ALT,[10],about 2 fold
same,elevation of AST,[10],about 6 fold
same,tolerability,[10],clinically well tolerated
same,minor metabolites,[11],< 10%
same,rate differences in conversion of Rp- and Sp-isomers,[11],no significant rate differences
same,desulfurized product,[11]; MS analysis,< 5%
same,conversion of prodrug to SB 40,[11]; up to eight hours,"stereospecific conversion to the dinucleotide Rp, Sp-SB 40"
